IC50, AC50 and EC50 data for three molecules are collected here from ChEMBL document CHEMBL1201862, “PubChem BioAssay data set” (2004).

The target of assay [1] is T1, Kappa-type opioid receptor (Homo sapiens, UniProt P41145). The assay is described as follows: SAR analysis of small molecule antagonists of the kappa opioid receptor via a luminescent beta-arrestin assay - Set 4. [Related pubchem assays (depositor defined):AID1777, AID1778, AID1785, AID1786, AID1966, AID2133, AID2136, AID2285]. Format: functional.
Assay [2] addresses Delta-type opioid receptor (Homo sapiens, UniProt P41143). The assay is described as follows: SAR Analysis of Antagonists of the DOR Receptor using an Image-Based Assay - Set 3. [Related pubchem assays (depositor defined):AID1777, AID1785]. Format: functional.
For assay [3], the target named is T1, Kappa-type opioid receptor. The assay is described as follows: SAR analysis of Antagonists of the Kappa Opioid Receptor (KOR) using an Image-Based Assay - Set 4. [Related pubchem assays (depositor defined):AID1777, AID1785]. Format: functional.
Assay [4] concerns the target Mu-type opioid receptor (Homo sapiens, UniProt P35372). Kind of assay: SAR Analysis of Antagonists of the MOR Receptor using an Image-Based Assay - Set 3. [Related pubchem assays (depositor defined):AID1777, AID1785, AID1786, AID1966, AID2133, AID2136, AID2284, AID2285, AID2420]. Format: functional.
In assay [5] the target is T2, Calpain-2 catalytic subunit (Sus scrofa, UniProt P43367).
T2 sequence (P43367 whole entry): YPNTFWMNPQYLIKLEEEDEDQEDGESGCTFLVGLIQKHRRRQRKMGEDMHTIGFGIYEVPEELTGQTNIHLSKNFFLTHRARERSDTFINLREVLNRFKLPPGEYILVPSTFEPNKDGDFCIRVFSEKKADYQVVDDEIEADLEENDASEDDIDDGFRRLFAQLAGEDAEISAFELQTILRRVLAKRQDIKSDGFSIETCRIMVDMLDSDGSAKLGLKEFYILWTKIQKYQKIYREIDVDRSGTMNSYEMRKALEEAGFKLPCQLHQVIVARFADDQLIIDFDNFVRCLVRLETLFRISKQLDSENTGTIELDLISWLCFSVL
The assay is described as follows: m-calpain protease blockers, concentration series – biochemical, fluorogenic peptide substrate, dose response (AID 1420). Format: functional.

Assay [6] addresses Bifunctional protein GlmU (Mycobacterium tuberculosis, UniProt P9WMN3). Kind of assay: Inhibitors of Mycobacterial Glucosamine-1-phosphate acetyl transferase (GlmU). Secondary screen. Details: species or system Mycobacterium tuberculosis H37Rv.
The target in assay [7] is T3, Aminopeptidase N (Plasmodium falciparum FcB1/Columbia, UniProt O96935).
T3 sequence (O96935 whole entry): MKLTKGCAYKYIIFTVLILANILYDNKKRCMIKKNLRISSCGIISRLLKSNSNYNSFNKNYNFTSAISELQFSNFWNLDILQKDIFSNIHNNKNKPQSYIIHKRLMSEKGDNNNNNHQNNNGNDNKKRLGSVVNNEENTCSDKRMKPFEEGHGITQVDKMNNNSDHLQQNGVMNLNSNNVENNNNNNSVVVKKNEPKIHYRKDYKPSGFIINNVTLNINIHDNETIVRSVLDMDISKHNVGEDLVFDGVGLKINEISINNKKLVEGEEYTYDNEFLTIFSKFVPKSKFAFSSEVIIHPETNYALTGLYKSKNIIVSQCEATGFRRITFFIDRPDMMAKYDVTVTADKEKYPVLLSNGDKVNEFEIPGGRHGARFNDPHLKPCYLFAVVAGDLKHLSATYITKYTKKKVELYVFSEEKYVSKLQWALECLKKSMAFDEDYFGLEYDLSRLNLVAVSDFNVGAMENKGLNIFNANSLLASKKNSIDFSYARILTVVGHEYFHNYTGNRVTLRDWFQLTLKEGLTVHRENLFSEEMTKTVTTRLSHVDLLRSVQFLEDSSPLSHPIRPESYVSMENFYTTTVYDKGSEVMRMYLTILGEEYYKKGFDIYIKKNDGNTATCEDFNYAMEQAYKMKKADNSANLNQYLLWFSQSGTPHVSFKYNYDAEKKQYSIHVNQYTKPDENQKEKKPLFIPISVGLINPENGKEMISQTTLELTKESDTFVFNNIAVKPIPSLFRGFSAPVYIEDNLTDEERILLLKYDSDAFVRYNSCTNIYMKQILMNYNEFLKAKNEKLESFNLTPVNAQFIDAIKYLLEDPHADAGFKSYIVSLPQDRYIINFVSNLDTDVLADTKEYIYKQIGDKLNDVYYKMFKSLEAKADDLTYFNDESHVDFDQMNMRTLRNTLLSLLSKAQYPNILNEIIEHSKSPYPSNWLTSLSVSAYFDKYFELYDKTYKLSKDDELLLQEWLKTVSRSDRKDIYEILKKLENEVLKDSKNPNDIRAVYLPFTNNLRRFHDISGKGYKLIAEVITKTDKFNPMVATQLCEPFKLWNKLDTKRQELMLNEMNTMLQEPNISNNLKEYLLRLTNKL
Kind of assay: malaria alanyl aminopeptidase activity blockers – biochemical, fluorogenic H-Leu-NHMec substrate, 1536-well (AID 1445). On the set-up: species or system Plasmodium falciparum 3D7, 3D7.

The target in assay [8] is ORF 73 (Human herpesvirus 8, UniProt O40947). Kind of assay: KSHV LANA DNA-binding disruption – biochemical, fluorescence polarization, cherry-picked samples, dose response (AID 504725).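 Note: fluorescence polarization of a labeled DNA duplex reporting LANA DNA binding; potency is for inhibitors that block LANA binding to the DNA.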 Details: species or system Human gammaherpesvirus 8. On the technique in general: In fluorescence polarisation assays a small probe gives low polarisation when free and higher when bound to something large.

The target in assay [9] is Large T antigen (Simian virus 40, UniProt P03070). In kind it is functional, Betapolyomavirus macacae.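 Note: Confirmatory-stage PubChem screen for compounds that inhibit SV40 T antigen.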
For assay [10], the target named is Guanyl-specific ribonuclease T1 (Aspergillus oryzae (strain ATCC 42149 / RIB 40), UniProt P00651). The assay is described as follows: inhibition of ribonuclease T1 activity – biochemical, fluorescence polarization, 1536-well, counter-screen for TPT1 inhibitor project, dose response (AID 2167).
Assay [11] concerns the target T4, Cysteine protease ATG4B (Homo sapiens, UniProt Q9Y4P1).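 Note: Fluorescence-based dose-response confirmation assay measuring inhibition of ATG4B activity.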
T4 sequence (Q9Y4P1 whole entry): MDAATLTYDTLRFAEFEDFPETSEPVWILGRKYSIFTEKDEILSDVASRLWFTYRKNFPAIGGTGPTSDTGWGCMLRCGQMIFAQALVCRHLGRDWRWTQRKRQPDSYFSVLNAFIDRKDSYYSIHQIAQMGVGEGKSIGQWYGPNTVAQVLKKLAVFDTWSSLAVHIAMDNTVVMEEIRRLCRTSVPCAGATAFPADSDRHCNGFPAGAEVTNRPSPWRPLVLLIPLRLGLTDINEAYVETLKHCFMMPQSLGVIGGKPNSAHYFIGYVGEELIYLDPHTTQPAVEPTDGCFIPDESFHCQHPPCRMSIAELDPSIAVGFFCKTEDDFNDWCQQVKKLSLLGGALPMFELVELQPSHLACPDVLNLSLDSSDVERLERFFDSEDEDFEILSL
In kind it is functional.

The subject of assay [12] is HeLa. The assay is described as follows: viability loss in HeLa cells – cell-based, 24 h, cherry-picked samples, cytotoxicity control, dose response (AID 504726).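 Note: potency for cytotoxicity as loss of luminescence signal.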 Format: functional. The settings on record: Homo sapiens.
In assay [13] the target is T5, Alkaline phosphatase, tissue-nonspecific isozyme (Homo sapiens, UniProt P05186).
T5 sequence (P05186 whole entry): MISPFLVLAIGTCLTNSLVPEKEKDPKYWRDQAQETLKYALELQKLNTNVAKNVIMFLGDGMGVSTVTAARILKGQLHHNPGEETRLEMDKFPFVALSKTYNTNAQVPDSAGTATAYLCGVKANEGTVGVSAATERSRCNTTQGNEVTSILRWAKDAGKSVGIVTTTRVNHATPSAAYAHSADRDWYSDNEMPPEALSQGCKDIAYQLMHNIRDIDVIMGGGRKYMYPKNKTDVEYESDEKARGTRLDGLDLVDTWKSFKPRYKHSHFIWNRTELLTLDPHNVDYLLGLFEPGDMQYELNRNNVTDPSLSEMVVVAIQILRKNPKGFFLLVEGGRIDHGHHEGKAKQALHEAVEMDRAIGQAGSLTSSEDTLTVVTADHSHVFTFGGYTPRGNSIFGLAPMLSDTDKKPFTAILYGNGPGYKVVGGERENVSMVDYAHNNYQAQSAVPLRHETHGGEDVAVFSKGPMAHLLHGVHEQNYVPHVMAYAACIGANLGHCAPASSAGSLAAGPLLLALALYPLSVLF
The assay is described as follows: activation of tissue-nonspecific alkaline phosphatase – biochemical, TNAP isozyme, mouse IAP uHTS hits, selectivity assay for mouse IAP activator project, dose response (AID 488880). Format: functional.

The target in assay [14] is Intestinal-type alkaline phosphatase (Homo sapiens, UniProt P09923). Kind of assay: activation of human intestinal alkaline phosphatase – biochemical, dose response (AID 488873). In kind it is functional.
For assay [15], the target named is Induced myeloid leukemia cell differentiation protein Mcl-1 (Homo sapiens, UniProt Q07820). Format: functional.
Assay [16] concerns the target Likely tRNA 2'-phosphotransferase (Candida albicans (strain SC5314 / ATCC MYA-2876) (Yeast), UniProt Q5A7N4). Kind of assay: inhibition of Candida TPT1 enzyme activity – biochemical, fluorescence polarization, dose response (AID 2160).
Assay [17] concerns the target Phospholipase A2 (Homo sapiens, UniProt P04054). Format: functional.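 Note: confirmatory dose-response counterscreen on phospholipase A2, testing hits that came from an ultra-high-throughput screen for ATG4B inhibitors.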
Assay [18] concerns the target Intestinal-type alkaline phosphatase (Mus musculus, UniProt P24822). The assay is described as follows: mouse intestinal alkaline phosphatase activators, dose response, biochemical, luminescence, uHTS hits (AID 488783). Format: functional.
Assay [19] addresses Phosphoethanolamine/phosphocholine phosphatase (Homo sapiens, UniProt Q8TCT1). The assay is described as follows: SAR assay for compounds that inhibit PHOSPHO1. [Related pubchem assays (depositor defined):AID1545, AID1565, AID1574].
For assay [20], the target named is T6, Hexokinase (Trypanosoma brucei, UniProt Q38C41).
T6 sequence (Q38C41 whole entry): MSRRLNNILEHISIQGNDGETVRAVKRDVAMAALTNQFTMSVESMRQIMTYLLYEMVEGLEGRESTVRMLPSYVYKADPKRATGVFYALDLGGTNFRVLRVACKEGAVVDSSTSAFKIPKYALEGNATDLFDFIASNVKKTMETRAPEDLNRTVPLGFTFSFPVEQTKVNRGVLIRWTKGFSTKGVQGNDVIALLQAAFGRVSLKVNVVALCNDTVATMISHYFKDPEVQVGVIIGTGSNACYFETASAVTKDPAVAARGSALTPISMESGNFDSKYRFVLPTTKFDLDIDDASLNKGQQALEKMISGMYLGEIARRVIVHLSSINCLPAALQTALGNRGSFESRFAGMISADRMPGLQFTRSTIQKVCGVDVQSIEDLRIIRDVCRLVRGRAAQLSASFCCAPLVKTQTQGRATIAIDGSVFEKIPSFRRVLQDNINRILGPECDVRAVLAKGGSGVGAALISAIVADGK
Kind of assay: Confirmation assay for inhibitors of Trypanosoma brucei hexokinase 1-Analogue-first series. [Related pubchem assays (depositor defined):AID1430, AID1632, AID2516, AID2560, AID2579, AID2600, AID449725, AID492951]. In kind it is functional.

For assay [21], the target named is Phosphomannomutase 2 (Homo sapiens, UniProt O15305). Kind of assay: Counter screen SAR assay for PMM2 inhibitors via a fluorescence intensity assay. [Related pubchem assays (depositor defined):AID1545, AID1574].
Assay [22] deals with T7, Mannose-6-phosphate isomerase (Homo sapiens, UniProt P34949).
T7 sequence (P34949 whole entry): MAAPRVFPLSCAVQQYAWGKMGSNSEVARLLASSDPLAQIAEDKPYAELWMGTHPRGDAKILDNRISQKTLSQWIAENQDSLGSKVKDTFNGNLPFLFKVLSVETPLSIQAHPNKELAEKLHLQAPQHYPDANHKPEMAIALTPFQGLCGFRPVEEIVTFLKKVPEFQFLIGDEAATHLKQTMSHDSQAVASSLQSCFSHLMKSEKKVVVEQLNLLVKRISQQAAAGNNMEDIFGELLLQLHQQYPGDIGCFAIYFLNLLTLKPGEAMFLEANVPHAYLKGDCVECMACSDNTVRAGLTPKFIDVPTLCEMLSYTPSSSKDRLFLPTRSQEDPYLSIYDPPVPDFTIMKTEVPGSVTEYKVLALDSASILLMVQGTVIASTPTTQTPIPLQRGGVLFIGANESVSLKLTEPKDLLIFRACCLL
The assay is described as follows: phosphomannose isomerase inhibition – biochemical, fluorescence intensity, confirmation (AID 1535).

The source made the active and inactive calls. Bounds are passed on as bounds.

T1 sequence (P41145 whole entry): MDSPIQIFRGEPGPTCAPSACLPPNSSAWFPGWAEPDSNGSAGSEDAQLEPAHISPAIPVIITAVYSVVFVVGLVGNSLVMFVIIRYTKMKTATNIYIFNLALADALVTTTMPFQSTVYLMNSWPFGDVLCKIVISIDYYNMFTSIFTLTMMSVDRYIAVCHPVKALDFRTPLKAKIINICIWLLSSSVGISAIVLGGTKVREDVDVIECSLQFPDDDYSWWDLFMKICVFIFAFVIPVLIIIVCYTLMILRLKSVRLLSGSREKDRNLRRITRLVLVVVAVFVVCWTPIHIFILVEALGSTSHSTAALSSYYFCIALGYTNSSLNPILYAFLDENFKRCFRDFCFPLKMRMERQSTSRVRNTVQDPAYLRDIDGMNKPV
Chain of Phosphoethanolamine/phosphocholine phosphatase (Q8TCT1 whole entry): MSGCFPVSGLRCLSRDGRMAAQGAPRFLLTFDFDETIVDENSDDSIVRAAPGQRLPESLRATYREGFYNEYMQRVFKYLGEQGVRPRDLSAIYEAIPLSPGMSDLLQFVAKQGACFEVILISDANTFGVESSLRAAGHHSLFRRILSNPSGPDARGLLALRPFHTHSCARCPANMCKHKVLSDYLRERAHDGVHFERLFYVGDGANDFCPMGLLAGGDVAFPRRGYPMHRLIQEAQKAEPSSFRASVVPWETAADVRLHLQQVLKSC
Chain of Phospholipase A2 (P04054 whole entry): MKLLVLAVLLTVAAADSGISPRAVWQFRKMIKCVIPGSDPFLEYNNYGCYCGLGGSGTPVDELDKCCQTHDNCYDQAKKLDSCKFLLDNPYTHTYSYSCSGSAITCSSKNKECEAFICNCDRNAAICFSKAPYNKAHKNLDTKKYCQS
Chain of Likely tRNA 2'-phosphotransferase (Q5A7N4 whole entry): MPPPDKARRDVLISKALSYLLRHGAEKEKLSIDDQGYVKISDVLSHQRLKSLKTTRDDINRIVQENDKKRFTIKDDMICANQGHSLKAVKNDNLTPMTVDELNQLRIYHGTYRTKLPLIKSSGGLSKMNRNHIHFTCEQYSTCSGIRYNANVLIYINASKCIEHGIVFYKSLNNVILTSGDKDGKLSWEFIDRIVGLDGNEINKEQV
Chain of Large T antigen (P03070 whole entry): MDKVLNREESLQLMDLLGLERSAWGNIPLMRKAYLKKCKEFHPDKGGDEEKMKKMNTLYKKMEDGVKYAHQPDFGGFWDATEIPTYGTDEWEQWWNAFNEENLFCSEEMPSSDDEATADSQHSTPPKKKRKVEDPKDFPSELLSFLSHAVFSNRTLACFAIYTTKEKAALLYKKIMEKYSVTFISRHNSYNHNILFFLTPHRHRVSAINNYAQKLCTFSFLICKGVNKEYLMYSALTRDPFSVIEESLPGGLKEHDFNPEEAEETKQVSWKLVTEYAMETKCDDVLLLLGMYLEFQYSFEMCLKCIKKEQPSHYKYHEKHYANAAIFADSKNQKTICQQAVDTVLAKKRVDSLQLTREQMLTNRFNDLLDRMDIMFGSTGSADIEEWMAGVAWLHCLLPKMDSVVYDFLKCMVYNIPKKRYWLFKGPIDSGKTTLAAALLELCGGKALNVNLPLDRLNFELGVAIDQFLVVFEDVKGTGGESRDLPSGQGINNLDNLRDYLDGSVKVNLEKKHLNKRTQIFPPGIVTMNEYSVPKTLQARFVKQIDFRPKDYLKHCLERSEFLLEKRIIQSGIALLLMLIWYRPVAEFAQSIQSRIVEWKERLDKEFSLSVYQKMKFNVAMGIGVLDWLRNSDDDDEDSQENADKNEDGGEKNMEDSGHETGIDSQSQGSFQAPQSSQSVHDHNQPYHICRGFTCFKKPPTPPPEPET
Chain of Phosphomannomutase 2 (O15305 whole entry): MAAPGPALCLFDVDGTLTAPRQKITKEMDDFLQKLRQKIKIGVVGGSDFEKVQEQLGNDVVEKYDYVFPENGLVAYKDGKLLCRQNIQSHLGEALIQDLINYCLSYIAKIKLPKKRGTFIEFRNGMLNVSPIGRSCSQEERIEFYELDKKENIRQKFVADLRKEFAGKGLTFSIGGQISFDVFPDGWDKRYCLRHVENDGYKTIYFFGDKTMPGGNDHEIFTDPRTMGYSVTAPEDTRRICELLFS
Chain of Bifunctional protein GlmU (P9WMN3 whole entry): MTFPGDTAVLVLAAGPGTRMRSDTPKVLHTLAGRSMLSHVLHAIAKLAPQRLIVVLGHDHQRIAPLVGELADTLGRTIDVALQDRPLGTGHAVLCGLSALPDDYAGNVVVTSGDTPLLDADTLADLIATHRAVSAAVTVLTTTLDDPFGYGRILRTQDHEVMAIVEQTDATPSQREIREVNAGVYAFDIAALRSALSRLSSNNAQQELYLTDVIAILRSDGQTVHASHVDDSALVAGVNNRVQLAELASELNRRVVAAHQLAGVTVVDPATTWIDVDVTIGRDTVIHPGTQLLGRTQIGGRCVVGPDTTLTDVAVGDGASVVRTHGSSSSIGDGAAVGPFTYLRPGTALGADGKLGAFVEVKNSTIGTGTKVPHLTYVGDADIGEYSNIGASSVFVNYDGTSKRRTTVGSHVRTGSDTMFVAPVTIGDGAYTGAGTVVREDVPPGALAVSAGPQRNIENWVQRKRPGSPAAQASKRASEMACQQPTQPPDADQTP
Chain of Guanyl-specific ribonuclease T1 (P00651 whole entry): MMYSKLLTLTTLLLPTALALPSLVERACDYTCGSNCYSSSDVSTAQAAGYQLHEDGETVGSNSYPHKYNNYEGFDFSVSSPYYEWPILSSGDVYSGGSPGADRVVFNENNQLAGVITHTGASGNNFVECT
Chain of Intestinal-type alkaline phosphatase (Mus musculus, UniProt P24822) (P24822 whole entry): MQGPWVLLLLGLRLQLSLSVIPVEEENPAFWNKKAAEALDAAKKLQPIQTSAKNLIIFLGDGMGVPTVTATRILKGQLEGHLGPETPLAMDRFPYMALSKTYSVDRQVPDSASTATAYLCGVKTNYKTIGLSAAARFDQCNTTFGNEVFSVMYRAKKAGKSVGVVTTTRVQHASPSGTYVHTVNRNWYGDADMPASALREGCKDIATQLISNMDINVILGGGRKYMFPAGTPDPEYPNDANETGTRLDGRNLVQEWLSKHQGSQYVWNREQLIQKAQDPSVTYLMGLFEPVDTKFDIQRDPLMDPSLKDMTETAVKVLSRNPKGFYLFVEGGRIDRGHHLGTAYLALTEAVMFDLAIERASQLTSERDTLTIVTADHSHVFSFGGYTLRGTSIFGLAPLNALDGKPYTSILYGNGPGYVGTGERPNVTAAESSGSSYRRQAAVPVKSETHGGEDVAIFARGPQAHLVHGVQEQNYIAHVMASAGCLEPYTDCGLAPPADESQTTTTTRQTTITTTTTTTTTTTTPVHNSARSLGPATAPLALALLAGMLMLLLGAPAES
Chain of Mu-type opioid receptor (P35372 whole entry): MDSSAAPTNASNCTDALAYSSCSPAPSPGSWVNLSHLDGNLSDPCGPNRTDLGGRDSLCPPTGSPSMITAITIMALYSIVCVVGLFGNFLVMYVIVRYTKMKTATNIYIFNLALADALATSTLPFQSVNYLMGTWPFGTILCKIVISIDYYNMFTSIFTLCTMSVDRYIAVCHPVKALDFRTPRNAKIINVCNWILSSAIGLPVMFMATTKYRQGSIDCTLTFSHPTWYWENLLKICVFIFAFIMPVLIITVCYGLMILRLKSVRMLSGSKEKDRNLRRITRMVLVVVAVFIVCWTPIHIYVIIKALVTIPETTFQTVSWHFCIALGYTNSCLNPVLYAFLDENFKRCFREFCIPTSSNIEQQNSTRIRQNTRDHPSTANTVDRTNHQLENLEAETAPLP
Chain of Intestinal-type alkaline phosphatase (Homo sapiens, UniProt P09923) (P09923 whole entry): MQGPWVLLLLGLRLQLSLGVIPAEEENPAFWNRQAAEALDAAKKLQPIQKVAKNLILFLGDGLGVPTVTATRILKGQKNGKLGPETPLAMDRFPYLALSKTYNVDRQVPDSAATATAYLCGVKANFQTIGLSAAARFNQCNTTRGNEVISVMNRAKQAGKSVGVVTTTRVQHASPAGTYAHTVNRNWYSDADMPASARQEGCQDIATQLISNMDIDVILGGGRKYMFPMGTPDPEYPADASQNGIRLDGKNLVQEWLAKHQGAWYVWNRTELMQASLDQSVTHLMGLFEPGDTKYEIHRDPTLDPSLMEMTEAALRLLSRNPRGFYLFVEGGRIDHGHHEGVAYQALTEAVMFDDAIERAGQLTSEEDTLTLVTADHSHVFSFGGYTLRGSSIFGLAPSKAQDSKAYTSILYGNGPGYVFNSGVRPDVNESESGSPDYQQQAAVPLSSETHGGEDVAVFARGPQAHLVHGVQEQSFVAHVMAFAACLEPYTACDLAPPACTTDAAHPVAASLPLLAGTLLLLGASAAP
Chain of Delta-type opioid receptor (P41143 whole entry): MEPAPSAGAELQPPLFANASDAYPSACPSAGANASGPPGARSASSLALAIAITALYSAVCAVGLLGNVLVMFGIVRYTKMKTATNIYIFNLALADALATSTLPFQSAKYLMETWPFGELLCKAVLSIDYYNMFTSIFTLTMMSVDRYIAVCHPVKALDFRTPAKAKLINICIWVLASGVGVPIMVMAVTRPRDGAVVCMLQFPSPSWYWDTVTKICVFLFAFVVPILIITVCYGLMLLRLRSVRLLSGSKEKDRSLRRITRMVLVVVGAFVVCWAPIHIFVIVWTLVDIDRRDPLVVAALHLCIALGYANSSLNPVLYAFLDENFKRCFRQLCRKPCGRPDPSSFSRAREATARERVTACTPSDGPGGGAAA
Chain of Induced myeloid leukemia cell differentiation protein Mcl-1 (Q07820 whole entry): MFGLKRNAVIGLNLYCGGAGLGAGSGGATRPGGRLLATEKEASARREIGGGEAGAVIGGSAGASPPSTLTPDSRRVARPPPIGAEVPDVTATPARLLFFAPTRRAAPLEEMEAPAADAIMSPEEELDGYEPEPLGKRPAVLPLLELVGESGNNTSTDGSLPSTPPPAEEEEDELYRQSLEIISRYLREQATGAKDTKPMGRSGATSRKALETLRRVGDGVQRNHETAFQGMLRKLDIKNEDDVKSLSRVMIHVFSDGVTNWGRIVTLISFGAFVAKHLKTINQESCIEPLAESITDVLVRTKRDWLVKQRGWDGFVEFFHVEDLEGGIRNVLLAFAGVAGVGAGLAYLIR

Consider `Cc1ccc(S(=O)(=O)N2CCc3ccc(C(=O)NCCN(Cc4ccccc4)C(C)C)cc3C2)cc1`, for which the IC50 in [1] is 10.2 µM (inactive); in [2], > 32 µM (inactive); in [3] it was > 32 µM (inactive); in assay [4], 2.89 µM (active).

Turning to `O=C1/C(=C/C=C/c2ccco2)SC(=S)N1NS(=O)(=O)c1ccccc1`, the IC50 is 8.28 µM (not active) in [5]; 49.6 µM (active) in assay [6]; 22.6 µM (active) in assay [7]; 25.4 µM (active) in assay [9]; 18.5 µM (not active) in [10]; 7.13 µM (active) in assay [11]. Moreover, the concentration for half-maximal inhibition (IC50) in [15] is 3.1 µM (active); in assay [16] it was 20.8 µM (not active); in assay [17], 13 µM (active). Besides, the concentration at half-maximal activity (AC50) in assay [8] was 177 µM (active); in assay [12], > 350 µM (inactive). Moreover, the results for the EC50 in assay [13], in [14] and in assay [18] were > 100 µM (inactive), > 100 µM (inactive) and 3.13 µM (active), respectively.

As to `O=c1c2ccc([N+](=O)[O-])cc2sn1-c1ccccc1`, the IC50 was 4.23 µM (inactive) in [19], 11.6 µM (active) in [20], > 100 µM (inactive) in [21] and > 50 µM (inactive) in assay [22].

A word on the IC50: it is the concentration at which inhibition is half-maximal. The term AC50 denotes the concentration giving half of the maximal activity seen. In general, EC50 refers to the concentration needed to bring the measured effect to its halfway point.
